# Experimental data: patent US20240287076A1, “COMPOUNDS FOR TARGETING DEGRADATION OF BRUTON'S TYROSINE KINASE” (BIOGEN MA INC., priority 2021, published 2024)
# Molecular target: T1, BTK (Homo sapiens, UniProt Q06187)
# T1 construct: The GM01501.3 cell line endogenously expresses BTK with a HiBiT fusion tag via CRISPR knock-in at its C-terminal region; endogenous in cells; host or cells: GM01501.3 (GM01501 cells engineered by CRISPR knock-in of HiBiT at the BTK locus)
# Assay: BTK degradation assay using the HiBiT Method (Nano-Glo HiBiT Lytic Assay, GM01501.3 cells)
# Assay type: cell-based
# Settings: HiBiT Degradation on GM01501.3 BTK @ 6 hours
# Description: Selected compounds were tested in a BTK degradation assay using the HiBiT Method. Park Memorial Institute (RPM1) 1640 Medium with phenol red, L-Glutamine, Sodium Pyruvate, and fetal bovine serum (FBS) were purchased from Gibco (Grand Island, NY, USA). Nano-Glo® HiBiT Lytic Assay System was purchased from Promega (Madison, WI, USA). GM01501 cells were obtained from the NIGMS Human Genetic Cell Repository at the Coriell Institute for Medical Research. The GM01501.3 cell line endogenously expresses BTK with a HiBiT fusion tag via CRISPR knock-in at its C-terminal region. It was engineered by electroporation with the Neon Transfection System (Themo Fisher Scientific), according to manufacturer indications. Electroporation conditions: 1 pulse of 1,350 V for 30 ms for 0.5×10_6 cells. Cell culture flasks and 384-well microplates were acquired from VWR (Radnor, PA, USA). BTK degradation was evaluated by quantification of luminescent signal using Nano-Glo® HiBiT Lytic Assay kit. Test compounds were added to the 384-well plate from a top concentration of 10 μM with 11 points, half log titration in duplicates. GM01501.3 cells were added into 384-well plates at a cell density of 10,000 cells per well in a total volume of 30 μl. The plates were kept at 37° C. with 5% CO2 for 6 hours. Negative control wells included cells treated with DMSO only and positive control wells included only growing media, without Nano-Glo® HiBiT Lytic reagent. After a 6-hour incubation, Nano-Glo® HiBiT Lytic Assay reagent was added to the cells following manufacturer indications. Luminescence was acquired on EnVision™ Multilabel Reader (PerkinElmer, Santa Clara, CA, USA). […] “++++” represents a DC50 value of less than 100 nM. “+++” represents a DC50 value of 100 nM-500 nM. “++” represents a DC50 value of 500 nM-1000 nM. “+” represents a DC50 value of greater than 1000 nM.
# T1 sequence (Q06187 whole entry, the tested form may be a part): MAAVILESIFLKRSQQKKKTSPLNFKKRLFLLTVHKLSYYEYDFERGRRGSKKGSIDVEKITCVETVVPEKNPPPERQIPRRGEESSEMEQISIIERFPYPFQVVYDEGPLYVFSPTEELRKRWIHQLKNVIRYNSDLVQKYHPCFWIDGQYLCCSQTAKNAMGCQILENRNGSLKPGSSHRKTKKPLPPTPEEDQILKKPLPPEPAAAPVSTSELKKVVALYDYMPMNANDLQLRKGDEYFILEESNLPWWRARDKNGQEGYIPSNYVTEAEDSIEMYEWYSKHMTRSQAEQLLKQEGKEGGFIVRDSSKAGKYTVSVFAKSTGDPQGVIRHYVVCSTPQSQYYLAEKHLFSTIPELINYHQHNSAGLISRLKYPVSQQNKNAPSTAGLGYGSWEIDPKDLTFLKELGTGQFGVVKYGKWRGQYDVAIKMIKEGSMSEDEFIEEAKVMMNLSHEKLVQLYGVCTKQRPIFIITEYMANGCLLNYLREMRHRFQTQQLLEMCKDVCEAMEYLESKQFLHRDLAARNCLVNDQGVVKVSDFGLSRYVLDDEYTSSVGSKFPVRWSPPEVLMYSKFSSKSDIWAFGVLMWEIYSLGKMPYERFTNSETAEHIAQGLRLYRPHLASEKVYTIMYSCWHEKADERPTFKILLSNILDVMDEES
row,Compound,DC50
1,"Cc1cc(-c2ncnn3cc(-c4ccc(CN5CCC(c6ccc(C7CCC(=O)NC7=O)cc6)CC5)cc4)cc23)ccc1CNC(=O)c1noc(C(C)(C)C)n1 (centres unmarked) [Example 4, 5-tert-butyl-N-[[4-[6-[4-[[4-[4-(2,6-dioxo-3-piperidyl)phenyl]-1-piperidyl]methyl]phenyl]pyrrolo[2,1-f][1,2,4]triazin-4-yl]-2-methyl-phenyl]methyl]-1,2,4-oxadiazole-3-carboxamide]",< 100 nM
2,"Cc1cc(-c2ncnn3cc(-c4ccc(CN5CCC(c6ccc(NC7CCC(=O)NC7=O)cc6)CC5)cn4)cc23)ccc1CNC(=O)c1noc(C(C)(C)C)n1 (centres unmarked) [Example 241, 5-(tert-butyl)-N-(4-(6-(5-((4-(4-((2,6-dioxopiperidin-3-yl)amino)phenyl)piperidin-1-yl)methyl)pyridin-2-yl)pyrrolo[2,1-f][1,2,4]triazin-4-yl)-2-methylbenzyl)-1,2,4-oxadiazole-3-carboxamide]",< 100 nM
3,"Cc1cc(-c2ncnn3cc(CCN4CCC(c5ccc(OC6CCC(=O)NC6=O)cc5)CC4)cc23)ccc1CNC(=O)c1noc(C(C)(C)C)n1 (centres unmarked) [Example 118, 5-tert-butyl-N-[[4-[6-[2-[4-[4-[(2,6-dioxo-3-piperidyl)oxy]phenyl]-1-piperidyl]ethyl]pyrrolo[2,1-f][1,2,4]triazin-4-yl]-2-methyl-phenyl]methyl]-1,2,4-oxadiazole-3-carboxamide]",< 100 nM
4,"Cc1cc(-c2ncnn3cc(CCN4CCC(c5ccc(OC6CCC(=O)NC6=O)cn5)CC4)cc23)ccc1CNC(=O)c1noc(C(C)(C)C)n1 (centres unmarked) [Example 264, 5-(tert-butyl)-N-(4-(6-(2-(4-(5-((2,6-dioxopiperidin-3-yl)oxy)pyridin-2-yl)piperidin-1-yl)ethyl)pyrrolo[2,1-f][1,2,4]triazin-4-yl)-2-methylbenzyl)-1,2,4-oxadiazole-3-carboxamide]",< 100 nM
5,"Cc1cc(-c2ncnn3cc(N4CCN(C(=O)CCC5CCCN5C(=O)c5ccc(OC6CCC(=O)NC6=O)cc5)CC4)cc23)ccc1CNC(=O)c1noc(C(C)(C)C)n1 (centres unmarked) [Example 181, 5-(tert-butyl)-N-(4-(6-(4-(3-(1-(4-((2,6-dioxopiperidin-3-yl)oxy)benzoyl)pyrrolidin-2-y1)propanoyl)piperazin-1-yl)pyrrolo[2,1-f][1,2,4]triazin-4-yl)-2-methylbenzyl)-1,2,4-oxadiazole-3-carboxamide]",< 100 nM
6,"Cc1cc(-c2ncnn3cc(CCC[C@H](F)CN4CCC(c5ccc(C6CCC(=O)NC6=O)cc5)CC4)cc23)ccc1CNC(=O)c1noc(C(C)(C)C)n1 (stereo partly drawn) [Example 171, 5-tert-butyl-N-[[4-[6-[(4S)-5-[4-[4-(2,6-dioxo-3-piperidyl)phenyl]-1-piperidyl]-4-fluoro-pentyl]pyrrolo[2,1-f][1,2,4]triazin-4-yl]-2-methyl-phenyl]methyl]-1,2,4-oxadiazole-3-carboxamide]",< 100 nM
7,"Cc1cc(-c2ncnn3cc(-c4nccc(CN5CCC(c6ccc(C7CCC(=O)NC7=O)cc6)CC5)c4F)cc23)ccc1CNC(=O)c1noc(C(C)(C)C)n1 (centres unmarked) [Example 217, 5-(tert-butyl)-N-(4-(6-(4-((4-(4-(2,6-dioxopiperidin-3-yl)phenyl)piperidin-1-yl)methyl)-3-fluoropyridin-2-yl)pyrrolo[2,1-f][1,2,4]triazin-4-yl)-2-methylbenzyl)-1,2,4-oxadiazole-3-carboxamide]",< 100 nM
8,"Cc1cc(-c2ncnn3cc(-c4ncc(CN5CCC(c6ccc(C7CCC(=O)NC7=O)cc6)CC5)cc4C)cc23)ccc1CNC(=O)c1noc(C(C)(C)C)n1 (centres unmarked) [Example 213, 5-(tert-butyl)-N-(4-(6-(5-((4-(4-(2,6-dioxopiperidin-3-yl)phenyl)piperidin-1-yl)methyl)-3-methylpyridin-2-yl)pyrrolo[2,1-f][1,2,4]triazin-4-yl)-2-methylbenzyl)-1,2,4-oxadiazole-3-carboxamide]",< 100 nM
9,"CO[C@H]1CN(CCc2cc3c(-c4ccc(CNC(=O)c5noc(C(C)(C)C)n5)c(C)c4)ncnn3c2)CC[C@H]1c1ccc2c(N3CCC(=O)NC3=O)nn(C)c2c1 (single isomer, unassigned) [Example 262]",< 100 nM
10,"Cc1cc(-c2ncnn3cc(N4CCN(C(=O)CC5CC6(C5)CN(C(=O)c5ccc(OC7CCC(=O)NC7=O)cc5)C6)CC4)cc23)ccc1CNC(=O)c1noc(C(C)(C)C)n1 (centres unmarked) [Example 185, 5-(tert-butyl)-N-(4-(6-(4-(2-(2-(4-((2,6-dioxopiperidin-3-yl)oxy)benzoyl)-2-azaspiro[3.3]heptan-6-yl)acetyl)piperazin-1-yl)pyrrolo[2,1-f][1,2,4]triazin-4-yl)-2-methylbenzyl)-1,2,4-oxadiazole-3-carboxamide]",< 100 nM
11,"Cc1cc(-c2ccnn3cc(-c4ccc(CN5CCC(c6ccc(NC7CCC(=O)NC7=O)cc6)CC5)cc4)cc23)ccc1CNC(=O)c1noc(C(C)(C)C)n1 (centres unmarked) [Example 154, 5-tert-butyl-N-[[4-[6-[4-[[4-[4-[(2,6-dioxo-3-piperidyl)amino]phenyl]-1-piperidyl]methyl]phenyl]pyrrolo[1,2-b]pyridazin-4-yl]-2-methyl-phenyl]methyl]-1,2,4-oxadiazole-3-carboxamide]",< 100 nM
12,"Cc1cc(-c2ncnn3cc(CCCCN4CCC(c5ccc6c(N7CCC(=O)NC7=O)nn(C)c6c5)CC4)cc23)ccc1CNC(=O)c1cnn(C(C)(C)C)c1 [Example 281, 1-(tert-butyl)-N-(4-(6-(4-(4-(3-(2,4-dioxotetrahydropyrimidin-1(2H)-yl)-1-methyl-1H-indazol-6-yl)piperidin-1-yl)butyl)pyrrolo[2,1-f][1,2,4]triazin-4-yl)-2-methylbenzyl)-1H-pyrazole-4-carboxamide]",< 100 nM
13,"Cc1cc(-c2ncnn3cc(-c4ccc(CN5CCC(c6ccc(NC7CCC(=O)NC7=O)cc6)CC5)cc4)cc23)ccc1CNC(=O)c1noc(C(C)(C)C)n1 (racemic) [Example 1, 5-tert-butyl-N-[[4-[6-[4-[[4-[4-[(2,6-dioxo-3-piperidyl)amino]phenyl]-1-piperidyl]methyl]phenyl]pyrrolo[2,1-f][1,2,4]triazin-4-yl]-2-methyl-phenyl]methyl]-1,2,4-oxadiazole-3-carboxamide]",< 100 nM
14,"COc1cc(CN2CCC(c3ccc(NC4CCC(=O)NC4=O)cc3)CC2)ccc1-c1cc2c(-c3ccc(CNC(=O)c4noc(C(C)(C)C)n4)c(C)c3)ncnn2c1 (centres unmarked) [Example 21, 5-tert-butyl-N-[[4-[6-[4-[[4-[4-[(2,6-dioxo-3-piperidyl)amino]phenyl]-1-piperidyl]methyl]-2-methoxy-phenyl]pyrrolo[2,1-f][1,2,4]triazin-4-yl]-2-methyl-phenyl]methyl]-1,2,4-oxadiazole-3-carboxamide]",< 100 nM
15,COc1cc(CN2CCC(c3ccc(C4CCC(=O)NC4=O)cc3)CC2)ccc1OCCOc1cccc(-c2cc3c(-c4ccc(CNC(=O)c5noc(C(C)(C)C)n5)c(C)c4)ncnn3c2)c1 (centres unmarked) [Example 204],100 to 500 nM
16,CC(C)(C)c1nc(C(=O)NCc2ccc(-c3ncnn4cc(-c5ccc(CN6CCOc7cc(OC8CCC(=O)NC8=O)ccc7C6)cn5)cc34)cc2F)no1 (centres unmarked) [Example 228],100 to 500 nM
17,"Cc1cc(-c2ncnn3cc(CCN4CCC(c5ccc(C6CCC(=O)NC6=O)cc5)C(F)(F)C4)cc23)ccc1CNC(=O)c1noc(C(C)(C)C)n1 (centres unmarked) [Example 119, 5-tert-butyl-N-[[4-[6-[2-[4-[4-(2,6-dioxo-3-piperidyl)phenyl]-3,3-difluoro-1-piperidyl]ethyl]pyrrolo[2,1-f][1,2,4]triazin-4-yl]-2-methyl-phenyl]methyl]-1,2,4-oxadiazole-3-carboxamide]",< 100 nM
18,"Cc1cc(-c2ncnn3cc(-c4ccc(CN5CCC(c6ccc(NC7CCC(=O)NC7=O)cc6)CC5)cc4)cc23)ccc1CNC(=O)c1ccc(C(F)F)cn1 (centres unmarked) [Example 96, 5-(difluoromethyl)-N-[[4-[6-[4-[[4-[4-[(2,6-dioxo-3-piperidyl)amino]phenyl]-1-piperidyl]methyl]phenyl]pyrrolo[2,1-f][1,2,4]triazin-4-yl]-2-methyl-phenyl]methyl]pyridine-2-carboxamide]",< 100 nM
19,"Cc1cc(-c2ncnn3cc(-c4ccc(CN5CCC(c6ccc(NC7CCC(=O)NC7=O)cc6)CC5)cc4)cc23)ccc1CNC(=O)N1CCC(OC(C)(C)C)C1 (centres unmarked) [Example 98, 3-tert-butoxy-N-[[4-[6-[4-[[4-[4-[(2,6-dioxo-3-piperidyl)amino]phenyl]-1-piperidyl]methyl]phenyl]pyrrolo[2,1-f][1,2,4]triazin-4-yl]-2-methyl-phenyl]methyl]pyrrolidine-1-carboxamide]",< 100 nM
20,"Cc1cc(-c2ncnn3cc(-c4ccc(CN5CCOC(c6ccc(NC7CCC(=O)NC7=O)cc6)C5)cc4)cc23)ccc1CNC(=O)c1noc(C(C)(C)C)n1 (centres unmarked) [Example 200, 5-(tert-butyl)-N-(4-(6-(4-((2-(4-((2,6-dioxopiperidin-3-yl)amino)phenyl)morpholino)methyl)phenyl)pyrrolo[2,1-f][1,2,4]triazin-4-yl)-2-methylbenzyl)-1,2,4-oxadiazole-3-carboxamide]",< 100 nM
